Source: PubChem BioAssay (NCI)
Several values for one entry are separate records, joined by “and”; a condition that tells them apart may be missing. Identical values can stand only once.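 Cultured in 96-well plates, cells were exposed to test compound for 48 hours across five concentrations. GI50: concentration for 50% inhibition of growth. TGI is the concentration that stops growth completely.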

Legend:
Test in all cases: NCI tumour cell line growth inhibition, 48 h
ACHN renal = system: ACHN renal
HCT-116 colon = system: HCT-116 colon
K-562 leukemia = system: K-562 leukemia
M14 melanoma = system: M14 melanoma
MCF7 breast = system: MCF7 breast
NCI-H522 lung = system: NCI-H522 lung
NCI/ADR-RES ovarian = system: NCI/ADR-RES ovarian
OVCAR-5 ovarian = system: OVCAR-5 ovarian
OVCAR-8 ovarian = system: OVCAR-8 ovarian
RXF 393 renal = system: RXF 393 renal
SF-268 CNS = system: SF-268 CNS
SK-MEL-5 melanoma = system: SK-MEL-5 melanoma
SR leukemia = system: SR leukemia
SW-620 colon = system: SW-620 colon
U251 CNS = system: U251 CNS
UACC-257 melanoma = system: UACC-257 melanoma
UO-31 renal = system: UO-31 renal
MALME-3M melanoma = system: MALME-3M melanoma

Structure (SMILES)	TGI (ACHN renal) [µM]	TGI (HCT-116 colon) [µM]	TGI (K-562 leukemia) [µM]	TGI (M14 melanoma) [µM]	TGI (MCF7 breast) [µM]	TGI (NCI-H522 lung) [µM]	TGI (NCI/ADR-RES ovarian) [µM]	TGI (OVCAR-5 ovarian) [µM]	TGI (OVCAR-8 ovarian) [µM]	TGI (RXF 393 renal) [µM]	TGI (SF-268 CNS) [µM]	TGI (SK-MEL-5 melanoma) [µM]	TGI (SR leukemia) [µM]	TGI (SW-620 colon) [µM]	TGI (U251 CNS) [µM]	TGI (UACC-257 melanoma) [µM]	TGI (UO-31 renal) [µM]	TGI (MALME-3M melanoma) [µM]	GI50 (K-562 leukemia) [µM]	GI50 (M14 melanoma)
N#C/C(=C\N1CCNC1=S)C(=O)c1ccc2ccccc2c1	> 100	> 100	> 100	> 100	> 100	> 100	> 100	> 100	> 100	> 100	> 100	> 100	> 100	> 100	> 100	> 100	> 100	–	–	–
CCCCCCCCCCCCCCCCCCNc1ccn(C2OC(COP(=O)(O)OCCCCCCCCCCCCCCCC)C(O)C2O)c(=O)n1 (centres undefined)	> 100	> 100	> 100	> 100	> 100	> 100	> 100	> 100	> 100	> 100	> 100	–	> 100	> 100	> 100	> 100	> 100	–	–	–
CCOc1ccccc1N=NC1C(=O)N(C(=O)CC(=O)Nc2ccccc2Cl)N=C1C (centres undefined)	> 100	> 100	–	> 100	> 100	> 100	> 100	> 100	> 100	> 100	> 100	> 100	> 100	> 100	> 100	–	> 100	> 100	–	–
Cn1c2nc(=Nc3ccc(Cl)cc3)n3ccc4ccccc4c3c2c(=O)n1-c1ccccc1	> 100	> 100	> 100	–	> 100	> 100	> 100	> 100	> 100	> 100	> 100	> 100	> 100	> 100	> 100	> 100	> 100	> 100	–	–
COC(=O)[C@@H]1C[C@H]2[C@H](c3ccccc3Br)[C@@H](OC(C)=O)[C@@H](OCc3ccccc3)ON2O1	> 100	> 100	> 100	> 100	> 100	–	> 100	> 100	> 100	> 100	> 100	> 100	> 100	> 100	> 100	> 100	> 100	–	–	–
O=[N+]([O-])/C(Cl)=C(\Sc1ccccc1)C(Cl)=C(Cl)Cl	3.07	0.278	–	0.345	1.1	0.802	0.551	3.66	0.351	2.6	3.05	1.72	0.734	–	3.69	0.994	0.654	1.97	–	–
COC(=O)c1ccc(NCc2cc(O)c3ccccc3c2O)cc1	25.7	38.4	6.97	–	21.3	43.8	94.3	50.9	93.4	48.9	> 73.1	3.15	21.7	32.3	40.1	20.5	26.7	5.95	–	–
O=C(c1cccs1)N(C(=S)OCc1ccccn1)c1ccccc1	> 100	> 100	> 100	> 100	> 100	–	> 100	> 100	> 100	> 100	> 100	> 100	> 100	> 100	> 100	> 100	96.7	44	–	–
CCOC(=O)C1C(=O)CC(C)(O)C(C(=O)OCC)C1c1ccc(O)c(OC)c1 (centres undefined)	> 100	> 100	> 100	–	> 100	> 100	> 100	> 100	> 100	> 100	> 100	> 100	> 100	> 100	> 100	> 100	> 100	> 100	–	–
O=C(C1=CCC2(CC1)OCCO2)N(Cc1ccccc1)c1ccccc1I	43.2	37.7	> 100	33.5	72.4	–	32.8	36.7	30.1	77.6	27.9	30.1	> 100	> 100	48.1	46.7	33.3	–	–	–
CC(C)Nc1n[nH]c(=O)n1C(C)C	> 100	> 100	> 100	> 100	> 100	–	> 100	> 100	> 100	–	> 100	> 100	> 100	> 100	> 100	> 100	> 100	–	–	–
Cc1ccc(-c2n[nH]c(=O)n2N)cc1	> 100	> 100	> 100	> 100	> 100	> 100	> 100	> 100	> 100	–	> 100	> 100	> 100	> 100	> 100	> 100	> 100	> 100	–	–
COc1ccc(C(F)(F)F)cc1NC(=O)O/N=C(/Cl)C(C)C	26.7	35.4	3.99	36	> 55.9	4.57	56.5	39.1	41.1	36.8	53.7	25.5	–	> 21.4	> 58.2	42.5	33.3	24.7	–	–
S=c1scc(-c2ccc(Cl)cc2)n1OC1CCCC1	90.4	> 100	> 100	> 100	81.6	54.2	> 100	> 100	> 100	> 100	> 100	24.4	–	> 100	39.7	> 100	> 100	> 100	–	–
C1CSCCSS[C@@H]2CCCCC2SC1 (some centres undefined)	–	> 100	> 100	> 100	> 100	> 100	> 100	> 100	> 100	–	> 100	> 100	> 100	> 100	> 100	> 100	> 100	–	–	–
O=C(/C=C/c1ccc(O)c(O)c1)Oc1ccccc1	41.7	34.6	> 100	55.2	64.9	1.95	43.5	> 96.3	38.2	40.1	32	33	24.8	> 100	48.3	> 81.8	30.5	–	–	–
O=C1C=CC(=O)c2c(O)c(Nc3ccc(OC(F)(F)F)cc3)c(Cl)c(O)c21	2.76	0.455	4.36	1.22	1.8	2.87	4.57	3.16	8.25	1.39	1.49	5.15	–	2.7	2.05	7.95	5.58	2.47	–	–
COC(=O)c1ccccc1C1CN=NC12Cc1c(C)c3c(c(C)c1C2=O)CCC3 (centres undefined)	> 100	> 100	> 100	> 100	> 100	> 100	> 100	> 100	> 100	> 100	> 100	> 100	–	> 100	> 100	> 100	> 100	> 100	–	–
CCOC(=O)c1c(SCC#N)n(-c2ccccc2)c(=S)n(-c2ccccc2)c1=O	> 100	> 100	> 100	> 100	> 100	> 100	> 100	> 100	> 100	–	> 100	> 100	> 100	> 100	> 100	> 100	> 100	> 100	–	–
S=C(NNC1=NCCCCN1)Nc1ccccc1	> 100	65.8	> 100	> 100	> 100	> 100	> 100	> 100	> 100	–	> 100	> 100	> 100	–	> 100	> 100	> 100	> 100	–	–
Cc1nc(SCC(=O)Nc2ccccc2)c2sc(=S)n(-c3ccccc3)c2n1	> 10	> 10	–	> 10	> 10	> 10	> 10	> 10	> 10	> 10	> 10	> 10	> 10	> 10	> 10	> 10	–	> 10	–	–
CC(=O)OCC1OC(Sc2nc(-c3ccc(C)cc3)c(C#N)c(=O)n2C2OC(COC(C)=O)C(OC(C)=O)C(OC(C)=O)C2OC(C)=O)C(OC(C)=O)C(OC(C)=O)C1OC(C)=O (centres undefined)	> 100	> 100	> 100	> 100	> 100	> 100	> 100	> 100	> 100	> 100	> 100	> 100	> 100	> 100	> 100	> 100	> 100	–	> 100	> 100 µM and 43.3 µM
CCOC(=O)c1c2ccccc2n2c(=O)n(C)nnc12	> 100	> 100	> 100	> 100	> 100	–	> 100	> 100	> 100	99.1	> 100	> 100	> 90.7	> 100	> 100	> 100	> 100	> 100	–	–
Cc1nnc2nc(-c3ccc(Cl)cc3Cl)cc(-c3ccc(Cl)cc3)n12	> 100	> 100	> 100	> 100	> 100	–	> 100	> 100	> 100	–	> 100	> 100	> 100	> 100	> 100	> 100	> 100	> 100	–	–
N[C@H]1CCc2c1nc1c(c2-c2ccccc2)CC[C@@H]1N	> 100	45.6	26.6	31.1	64.3	30.1	> 100	59.7	> 100	–	59.8	29.7	> 100	27.5	55.3	–	–	31.9	–	–
O=c1cc2oc3ccc4ccccc4c3cc-2c(=O)[nH]1	32	31.2	82.1	32.2	38.5	27.9	37.1	32.4	4.53	–	28.4	29.3	11	5.3	22	30.6	23.5	30.3	–	–
COc1ccc(/C=C/c2cc(=O)cc(/C=C/c3ccc(OC)c(O)c3)o2)cc1O	6.85	7	> 100	4.45	5	> 100	> 24.3	24	10.1	2.96	> 75.9	4.98	2.89	> 21.8	4.21	3.78	11.5	–	–	–
N#CC1(C#N)C(c2ccccc2)NC23CCCCC2C1(C#N)C(=O)N3 (centres undefined)	> 100	> 100	> 100	> 100	> 100	> 100	> 100	> 100	> 100	> 100	> 100	–	> 100	> 100	> 100	> 100	> 100	> 100	–	–
